How the values were obtained:
HAase [1] = assay: HA gel model of HAase inhibition-based kinetic viscoelastic profile measurement; type: biochemical
Experimental: Hyaluronidase inhibition activity was evaluated in a HA gel model of HAase inhibition-based kinetic viscoelastic profile measurement. According to the experimental design, various individual controls and known HAase inhibitors were tested (alone and in combination). In this model, HAase was introduced into a gel composed of HA. Upon exposure, the HAase decomposes the HA gel in a time dependent manner which is directly correlated to the viscosity of the HA gel. Test compounds were introduced to the HA gel system and degree of HAase inhibition as gauged by measuring viscosity (change in viscosity) over time.
At each time point, % of Viscosity Loss is compared to the viscosity of HA gel without enzyme.
To describe the synergy clearly, the “inhibition factor,” below, reflects the extent of inhibition of HAase activity, where n=viscosity: […]

hyaluronidase (HAase) = assay: in vitro dose screening assay of HAase inhibitors; type: biochemical
Experimental: Antioxidants having known hyaluronidase inhibition properties were tested in vitro to establish baseline inhibition. Referring now to the drawings, selected results are shown in the table of FIG. 1, with the known HAase inhibitor Apigenin as a positive control.

[2] = solubility / formulation observation; type: physicochemical
HAase [3] = settings: stated as known; cited from earlier work

## CC1(C)[C@@H](O[C@H]2O[C@H](C(=O)[O-])[C@@H](O)[C@H](O)[C@H]2O[C@@H]2O[C@H](C(=O)[O-])[C@@H](O)[C@H](O)[C@H]2O)CC[C@]2(C)[C@H]3C(=O)C=C4[C@@H]5C[C@@](C)(C(=O)O)CC[C@]5(C)CC[C@@]4(C)[C@]3(C)CC[C@@H]12.[K+].[K+] [dipotassium glycyrrhizate]
HAase [1]
  inhibition of hyaluronidase in gel model (in words): very mild effect
Hyaluronidase (HAase); concentration of 0.05 mg/mL
  inhibition of HAase (in words): mild inhibitors
Hyaluronidase (HAase); up to testing dose of 0.5 mg/ml
  dose effect on HAase inhibition: no clear dose effect

## O=C(OC[C@H]1O[C@@H](OC(=O)c2cc(O)c(O)c(OC(=O)c3cc(O)c(O)c(O)c3)c2)[C@H](OC(=O)c2cc(O)c(O)c(OC(=O)c3cc(O)c(O)c(O)c3)c2)[C@@H](OC(=O)c2cc(O)c(O)c(OC(=O)c3cc(O)c(O)c(O)c3)c2)[C@@H]1OC(=O)c1cc(O)c(O)c(OC(=O)c2cc(O)c(O)c(O)c2)c1)c1cc(O)c(O)c(OC(=O)c2cc(O)c(O)c(O)c2)c1 [tannic acid]
[2]
  solubility (in words): highly insoluble
Hyaluronidase (HAase); in vitro assay
  inhibition of HAase (in words): very potent inhibitor
HAase [3]
  inhibition of HAase (known): super-efficient inhibitor
